Source: patent US20240076609A1, “COMPOSITIONS AND METHODS FOR CULTURING AND EXPANDING CELLS” (LIFE TECHNOLOGIES CORPORATION, priority 2017, published 2024)
Where “and” joins values, the source holds several entries; their conditions need not be identical. Identical values can stand only once.

Experiments:
Primary human T cells = test: T cell expansion with 2-DG introduced at days 0, 3, 5, 7 or at every feed; assay type: cell-based
Protocol: Stimulation of T cells with DYNABEADS® Human T-Expander CD3/CD28 at a ratio of 3 beads per T cell and cultured in serum-free, animal origin free medium and culturing the cells with 2-DG. Followed by feeding the cells with 2-DG at various time points (day 3, day 5, day 7, and every time cells were fed).
Treatment with supplement was started on day 0, 3, 5, 7 and maintained with subsequent feedings. T cells were cultured for 12 days in serum-free T cell medium and in X-VIVO™ 15 medium supplemented with 5% human AB serum.
2-DG was cultured with the cells on day 0, 3, 5, 7 and maintained with subsequent feedings. T cells were cultured for 12 days in serum-free T cell medium and in medium with 5% Human AB Serum.

[1] = tested on: mixed CD4+ T cells and CD8+ T cells; test: Expansion of mixed CD4+ and CD8+ T cells at set ratios (5:1, 10:1) with 2-DG; assay type: cell-based, human; conditions: for Cultured T Cell Population Doublings at 5:1 CD4+:CD8+ Cells / Cultured T Cell Population Doublings at 10:1 CD4+:CD8+ Cells: 0.25 mM 2-DG
Protocol: T cell activation and expansion: T cells (seeding density 1×10^6 vc/mL) were activated with DYNABEADS® Human T-Expander CD3/CD28 (Thermo Fisher Scientific, Cat. No. 11141D) at a ratio of 3 beads per T cell and cultured in serum-free medium, animal origin free medium. T cells were counted on days 5, 7, 10, and 12 on a Vi-CELL XR analyzer (Beckman Coulter, Indianapolis IN) and fed with or without 2-DG (0.25 mM, 0.5 mM, 1 mM, 2 mM, and 4 mM) and 5% human AB serum to a density of 5×10^5 vc/mL on days 3, 5, and 7 and 1×10^6 vc/mL on day 10. For some studies, CD8+ and CD4+ T cells were isolated from PBMCs by negative selection using Untouched Human CD8+ and CD4+ T Cells Kits. Naïve and non-naïve T cells were isolated from enriched T cells by positive selection using CD45RA nanobeads (Miltenyi). CD4+ and CD8+ T cells were mixed at two different CD4+:CD8+ ratios (5:1 and 10:1) to determine the effect of 2-DG on CD8+ T cells. All conditions with and without 2-DG expanded to about 6 to 7 population doublings. Results illustrate that the effect of 2-DG treatment in cell growth was similar in both mixtures. (FIGS. 19 and 20). In FIGS. 38 and 39, CD4+ and CD8+ T cells were mixed at two different CD4:CD8 ratios (5:1 and 10:1) to determine the effect of 2-DG on CD8+ T cells. All conditions with and without 2-DG expanded to about 6 to 7 population doublings. Results illustrate that the effect of 2-DG treatment in cell growth was similar in both mixtures.

O=CC[C@@H](O)[C@H](O)[C@H](O)CO [2-DG, 2-Deoxy-D-Glucose]
Cultured T Cell Population Doublings (Primary human T cells; 0.25 mM 2-DG at Day 0, culture day 0): 0 | Cultured T Cell Population Doublings (Primary human T cells; 0.25 mM 2-DG at Day 0, culture day 5): 1.71 | Cultured T Cell Population Doublings (Primary human T cells; 0.25 mM 2-DG at Day 0, culture day 7): 3.69 | Cultured T Cell Population Doublings (Primary human T cells; 0.25 mM 2-DG at Day 0, culture day 10): 6.53 | Cultured T Cell Population Doublings (Primary human T cells; 0.25 mM 2-DG at Day 0, culture day 12): 7.47 | Cultured T Cell Population Doublings (Primary human T cells; 0.25 mM 2-DG at Day 0, day 5): 1.71 | Cultured T Cell Population Doublings (Primary human T cells; 0.25 mM 2-DG at Day 0, day 7): 3.69 | Cultured T Cell Population Doublings (Primary human T cells; 0.25 mM 2-DG at Day 0, day 10): 6.53 | Cultured T Cell Population Doublings (Primary human T cells; 0.25 mM 2-DG at Day 0, day 12): 7.47 | Cultured T Cell Population Doublings (Primary human T cells; 0.25 mM 2-DG at Day 3, culture day 0): 0 | Cultured T Cell Population Doublings (Primary human T cells; 0.25 mM 2-DG at Day 3, culture day 5): 1.90 | Cultured T Cell Population Doublings (Primary human T cells; 0.25 mM 2-DG at Day 3, culture day 7): 3.36 | Cultured T Cell Population Doublings (Primary human T cells; 0.25 mM 2-DG at Day 3, culture day 10): 5.80 | Cultured T Cell Population Doublings (Primary human T cells; 0.25 mM 2-DG at Day 3, culture day 12): 6.34 | Cultured T Cell Population Doublings (Primary human T cells; 0.25 mM 2-DG at Day 3, day 5): 1.90 | Cultured T Cell Population Doublings (Primary human T cells; 0.25 mM 2-DG at Day 3, day 7): 3.36 | Cultured T Cell Population Doublings (Primary human T cells; 0.25 mM 2-DG at Day 3, day 10): 5.80 | Cultured T Cell Population Doublings (Primary human T cells; 0.25 mM 2-DG at Day 3, day 12): 6.34 | Cultured T Cell Population Doublings (Primary human T cells; 0.25 mM 2-DG at Day 5, culture day 0): 0 | Cultured T Cell Population Doublings (Primary human T cells; 0.25 mM 2-DG at Day 5, culture day 5): 1.75 | Cultured T Cell Population Doublings (Primary human T cells; 0.25 mM 2-DG at Day 5, culture day 7): 3.50 | Cultured T Cell Population Doublings (Primary human T cells; 0.25 mM 2-DG at Day 5, culture day 10): 5.82 | Cultured T Cell Population Doublings (Primary human T cells; 0.25 mM 2-DG at Day 5, culture day 12): 6.59 | Cultured T Cell Population Doublings (Primary human T cells; 0.25 mM 2-DG at Day 5, day 5): 1.75 | Cultured T Cell Population Doublings (Primary human T cells; 0.25 mM 2-DG at Day 5, day 7): 3.50 | Cultured T Cell Population Doublings (Primary human T cells; 0.25 mM 2-DG at Day 5, day 10): 5.82 | Cultured T Cell Population Doublings (Primary human T cells; 0.25 mM 2-DG at Day 5, day 12): 6.59 | Cultured T Cell Population Doublings (Primary human T cells; 0.25 mM 2-DG at Day 7, culture day 0): 0 | Cultured T Cell Population Doublings (Primary human T cells; 0.25 mM 2-DG at Day 7, culture day 5): 1.70 | Cultured T Cell Population Doublings (Primary human T cells; 0.25 mM 2-DG at Day 7, culture day 7): 3.48 | Cultured T Cell Population Doublings (Primary human T cells; 0.25 mM 2-DG at Day 7, culture day 10): 5.83 | Cultured T Cell Population Doublings (Primary human T cells; 0.25 mM 2-DG at Day 7, culture day 12): 6.44 | Cultured T Cell Population Doublings (Primary human T cells; 0.25 mM 2-DG at Day 7, day 5): 1.70 | Cultured T Cell Population Doublings (Primary human T cells; 0.25 mM 2-DG at Day 7, day 7): 3.48 | Cultured T Cell Population Doublings (Primary human T cells; 0.25 mM 2-DG at Day 7, day 10): 5.83 | Cultured T Cell Population Doublings (Primary human T cells; 0.25 mM 2-DG at Day 7, day 12): 6.44 | population doublings (Primary human T cells; 0.25 mM 2-DG at day 0, 3, 5, 7 and every feed): 6 to 7 population doublings | Cultured T Cell Population Doublings (Primary human T cells; 0.25 mM 2-DG at every feed, culture day 0): 0 | Cultured T Cell Population Doublings (Primary human T cells; 0.25 mM 2-DG at every feed, culture day 5): 1.61 | Cultured T Cell Population Doublings (Primary human T cells; 0.25 mM 2-DG at every feed, culture day 7): 3.80 | Cultured T Cell Population Doublings (Primary human T cells; 0.25 mM 2-DG at every feed, culture day 10): 6.03 | Cultured T Cell Population Doublings (Primary human T cells; 0.25 mM 2-DG at every feed, culture day 12): 6.82 | Cultured T Cell Population Doublings (Primary human T cells; 0.25 mM 2-DG at every feed, day 5): 1.61 | Cultured T Cell Population Doublings (Primary human T cells; 0.25 mM 2-DG at every feed, day 7): 3.80 | Cultured T Cell Population Doublings (Primary human T cells; 0.25 mM 2-DG at every feed, day 10): 6.03 | Cultured T Cell Population Doublings (Primary human T cells; 0.25 mM 2-DG at every feed, day 12): 6.82 | Cultured T Cell Population Doublings at 5:1 CD4+:CD8+ Cells ([1]; day 5): 2.84 and 1.95 | Cultured T Cell Population Doublings at 10:1 CD4+:CD8+ Cells ([1]; day 5): 1.97 | Cultured T Cell Population Doublings at 5:1 CD4+:CD8+ Cells ([1]; day 7): 5.44 and 2.84 | Cultured T Cell Population Doublings at 10:1 CD4+:CD8+ Cells ([1]; day 7): 2.98 | Cultured T Cell Population Doublings at 5:1 CD4+:CD8+ Cells ([1]; day 10): 6.17 and 5.44 | Cultured T Cell Population Doublings at 10:1 CD4+:CD8+ Cells ([1]; day 10): 5.67 | Cultured T Cell Population Doublings at 10:1 CD4+:CD8+ Cells ([1]; day 12): 6.25 | population doublings ([1]; CD4+:CD8+ ratios 5:1 and 10:1): 6 to 7 population doublings
